Experimental data taken from patent US20230414657A1, “Novel compositions for neutralizing toxic effects of hydrogen peroxide in living cells or tissues” (Dzala LLC, priority 2020, published 2023).

Tests used:
C. elegans [1] = assay: Growth rate / worm size; assay type: in vivo; conditions: H2O2 alone (100 mM)
Description: Synchronized L1 worms were incubated at 15° C. on plates or in liquid culture and exposed to different conditions as indicated. Single worms were selected randomly from the plates or aliquots were taken from the liquid cultures and added to NGM plates for immediate visualization. 25 worms per treatment were measured at 24-48 hr intervals and all growth curves were done four times.

[2] = 0.25% hydrogen peroxide alone in drinking water
C. elegans [3] = assay: Quantification of glutathione (GSH/GSSG-Glo); assay type: in vivo
Description: Sample preparation was performed as described previously with some modifications^6. From each condition 10,000 synchronized animals were harvested and washed 3 times with sterile water. […] To thoroughly lyse the worms, 5 cycles of freezing and thawing were performed in a water bath at 37° C., followed by a 1-min sonication. The samples were then centrifuged and the supernatant tested for protein estimation and GSH quantification. Total GSH, GSSG, and GSH/GSSG ratios were quantified using the GSH/GSSG-Glo assay kit (Promega) following the instructions of the manufacturer. Briefly, each sample was tested in triplicate in 96-well culture plates with total glutathione or GSSG lysis reagent, for total glutathione or GSSG measurement, respectively. The GSH probe, luciferin-NT, was converted to luciferin, which is coupled to a firefly luciferase. The plates were then read in an […] plate reader (Perkin Elmer, United States). The GSSG value was subtracted from the total glutathione to calculate GSH levels and GSH/GSSG ratio. Four biological replicates were analyzed for each condition.

C. elegans [4] = tested on: C. elegans
Description: A population of synchronized L1 larvae was added to 30-ml glass tubes containing 2.5 ml of S-complete medium (liquid culture)^2 and NA22 or induced RNAi bacteria at an OD600 of 1.9. […] Worms were incubated at 15° C. and 150 rpm in a shaking incubator for 2-6 days, refreshing the medium every 2 days.
Briefly, for the treatment during larval development worms were incubated in liquid culture under different conditions from L1 until L4, and then transferred onto control NGM plates until death. During the reproductive period (days 1-8), worms were transferred to fresh plates every other day to separate them from their progeny. […] Worms that were missing, displaying internal egg hatching, losing vulva integrity, and burrowing into NGM agar were censored. Progeny number and embryonic lethality was determined the day after transferring the adult animals to fresh plates. Statistical analyses of lifespan were calculated by Log-rank (Mantel-Cox) tests on the Kaplan-Meier curves in GraphPad Prism. For progeny number and embryonic lethality, the significance of differences between conditions was determined using an unpaired t-test in GraphPadPrism 8.0. All experiments were performed in triplicate.

[5] = tested on: gox-1, ghpr-1, gcst-1, mel-32 and gcs-1 genes; assay: Quantitative real-time PCR of glycolate pathway genes; assay type: in vivo, C. elegans
Description: The differential expression of F41E6.5 (gox-1), C31C9.2 (ghpr-1), gcst-1, mel-32 and gcs-1 genes was measured using qRT-PCR. ˜5000 L1 N2 worms were exposed to each condition for 3 days at 15° Cas described above and then washed three times with H2O. Total RNA was isolated using the RNeasy Mini Kit (Qiagen) and equal amounts of all samples were reverse transcribed with SuperScript Ill (Invitrogen) using oligo(dT) 12-18 primers. cDNA quality was tested using standard PCR. qRT-PCR was performed using pre-designed TaqMan Gene Expression Assay (ThermoFischer Scientific) with at least three samples in triplicates. For the relative quantification of gene expression levels, the 2^−ΔΔCT method and results were normalized to the expression level of the cdc-42 gene. Expression levels were averaged over technical and biological replicates, […]

C. elegans [6] = assay: Oxygen consumption rate (OCR), Seahorse XFe96; assay type: in vivo; conditions: H2O2 alone (100 mM)
Description: Oxygen consumption of worms was measured with a Seahorse XFe96 system (Seahorse Bioscience, North Billerica, MA), as previously described^4. L3 larvae of the different strains were grown on plates or in liquid culture and supplemented for 2-4 days as described for each experiment. After removing bacteria and debris, approximately 100 worms were pipetted into each well of a 96-well Seahorse XF^e assay plate and OCR was measured until it stabilized. Then, 3 subsequent measurements were made at 6.5-min intervals. Finally, the exact number of worms in each well was counted and used for normalization. A small number of abnormal readings were also filtered out at this stage. On average, 7-8 wells (technical replicates) were used for each condition. Normalized OCR values were averaged for the last 3 measurements for each strain and condition. Four biological replicates were analyzed for each condition.

C. elegans [7] = assay: NADPH and NADP+ quantification by LC-MS; assay type: in vivo
Description: To measure NADP^+ and NADPH from C. elegans, 10000-15000 L1 worms were exposed to each condition in duplicates for 3 days and then washed four times with H2O. […] 25 µM solutions of each nucleotide were treated in parallel as standards. Homogenization for 15 min at 4° C. and 300 g was carried out in a TissueLyser II (Qiagen) after adding ⅓ volume of 0.5 mm zirconium beads. The resulting mixture was centrifuged at 13,000 g and the supernatant transferred to a new tube.
LC-MS/MS analysis of the samples was performed on a high-performance liquid chromatography (HPLC) system (1200 Agilent) coupled online to G2-S QTOF (Waters). For normal phase chromatography Bridge Amide 3.5 ml (2.1×100 mm) column from Waters was used. The mobile phase composed of eluent A and eluent B (40% acetonitrile, 0.1 mM ammonium acetate and 0.01% NH40H) was applied with the following gradient program: Eluent B, from 0% to 100% within 18 min; 100% from 18 min to 21 min; 0% from 21 min to 26 min. The flow rate was set at 0.3 ml/min. The spray voltage was set at 3.0 kV and the source temperature was set at 120° C. Nitrogen was used as both cone gas (50 L/h) and desolvation gas (800 L/h), and argon as the collision gas. MS^E mode was used with Bridge Amide 3.5 µl (2.1×100 mm) column in ESI negative ionization polarity for the detection of the nucleosides. Mass chromatograms and mass spectral data were acquired and processed by MassLynx software (Waters). Three and four biological replicates were analyzed for each condition of mel-32 RNAi and EV, respectively.

[8] = tested on: Staphylococcus aureus bacterial culture (ATCC 25923); assay: Antimicrobial effect on bacterial culture, colony count; assay type: cell-based; conditions: 2.5% solution
Description: A composition comprising 0.5% Glycine and 0.3% Hydrogen peroxide was prepared on 0.9% sodium chloride solution. Water was sterile purified.
After incubation for 4-5 minutes, sample from each test tube was diluted 1000 times with sterile water, and […] was spread evenly on standard tryptic soy agar petri plate. Plates were incubated at 37° C. for 24 hours and bacterial colonies were counted. As a positive control (100% survival), was taken a sample, where the composition was neutralized by sodium bisulfite instantly (FIG. 10).

SMILES | Growth (C. elegans [1]) | Effect on weight [2] | Oxidized form of glutathione (GSSG) (C. elegans [3]; H2O2 alone (100 mM)) | Total glutathione (C. elegans [3]; H2O2 alone (100 mM), 3 days) | GSH/GSSG ratio (C. elegans [3]; H2O2 alone, control 107.5) | Reduction of GSH/GSSG ratio (C. elegans [3]; peroxide alone vs control) | Reproductive capacity (C. elegans [4]; H2O2 alone) | Lifespan (C. elegans [4]; exposed to H2O2 alone during larval stages, then control plates, control worms 18.5+/−1.19 days) [days] | Expression of gcst-1 ([5]; peroxide or glycolate supplementation) | Expression of gox-1, ghpr-1, mel-32 and gcs-1 ([5]; worms exposed to different peroxide concentrations, 3 days) | Respiration rate (OCR) (C. elegans [6]) | Ratio of NADPH to NADP+ (C. elegans [7]; H2O2 alone (100 mM), 3 days) | Ratio of NADPH to NADP+ (C. elegans [7]; mel-32 knocked down worms, H2O2 alone) | Antimicrobial effect of the neutralizer on itself [8]
OO [H2O2, hydrogen peroxide] | growth delay | slight positive effect | 513 % of the control | 51 % of the control | 11.3 | 10 -fold | reduced reproductive capacity | 5.88 ± 1.47 | not significantly altered | significant induction | decline in the respiration rate | significantly decreased | further decline | –
O=S([O-])O.[Na+] [sodium bisulfite] | – | – | – | – | – | – | – | – | – | – | – | – | – | no antimicrobial effect
